The record followed here is patent publication US8435984B2, “Tertiary amine substituted peptides useful as inhibitors of HCV replication” (Achillion Pharmaceuticals, Inc., priority 2007, dated 2013).

Structures are written as SMILES.

For the first test, the system named is HCV replicon. Briefly: HCV replicon replication assay (NPT ELISA) in Huh-7 replicon-containing cells. The class given is cell-based, Hepatitis C virus. The note with it: Hepatitis C virus, 72 h; inhibition of HCV replicon replication, Huh-7 HCV replicon-containing cells, three days. As to the method: Compounds claimed herein are tested for the ability to inhibit viral replication of the Hepatitis C replicon in cultured cells in which the HCV replicon construct has been incorporated. The HCV replicon system was described by Bartenschlager, et. al (Science, 285, pp. 110-113 (1999)). The replicon system is predictive of in vivo anti-HCV activity; compounds that are active in humans uniformly evidence activity in the replicon assay.
In this assay HCV replicon containing cells are treated with different concentrations of the test compound to ascertain the ability of the test compound to suppress replication of the HCV replicon. As a positive control, HCV replicon-containing cells are treated with different concentrations of interferon alpha, a known inhibitor of HCV replication. The replicon assay system includes Neomycin Phosphotransferase (NPT) as a component of the replicon itself in order to detect the transcription of replicon gene products in the host cell. Cells in which the HCV replicon is actively replicating have high levels of NPT; the level of NPT is proportional to HCV replication. […] The NPT level of each sample is measured using a captured ELISA.
The HCV replicon contains, 5′-3′, the HCV-IRES, the neomycin phosphotransferase (neo) gene, the IRES of encephalomyocarditis virus, which directs translation of HCV sequences NS3 to NS5B, and the 3′-NTR. The sequence of the HCV replicon has been deposited in GenBank (Accession no. AJ242652).
The replicon is transfected into Huh-7 cells using standard methods such as electroporation.
HCV replicon-containing cells are rinsed with once PBS once; 2 mls of trypsin are then added. Cells are incubated at 37° C. in a 5% CO2 incubator for 3-5 minutes. 10 mls of complete medium is added to stop the reaction. Cells are blown gently, put into a 15 ml tube, and spun at 1200 rpm for four minutes. The trypsin/medium solution is removed and 5 mls of medium (500 ml DMEM (high glucose)) from BRL catalog #12430-054; 50 mls 10% FBS, 5% Geneticin G418 (50 mg/ml, BRL catalog #10131-035), 5 ml MEM non-essential amino acids (100×BRL #11140-050) and 5 ml pen-strep (BRL #15140-148) is added. The cells and media are mixed carefully
Cells are plated with screening medium (500 ml DMEM (BRL #21063-029), 50 ml FBS (BRL #10082-147) and 5 ml MEM non-essential amino acid (BRL #11140-050) at 6000-7500 cells/100 μl/well of 96 well plate (6-7.5×10^5 cells/10 ml/plate). Plates are placed into 37° C. 5% CO2 incubator overnight. 6D. Assay
The following morning, drugs (test compounds or interferon alpha) are diluted in 96 well U bottom plates with media or DMSO/media, depending on the final concentration chosen for screening. Generally for 6 concentrations of each test compounds ranging from 10 micromolar to 0.03 micromolar are applied. 100 μl of the test compound dilution is placed in wells of the 96 well plate containing the HCV replicon cells. Media without drug is added to some wells as a negative controls. DMSO is known to affect cell growth. Therefore, if drugs diluted in DMSO are used, all wells, including negative control (media only) and positive control (interferon alpha) wells, must contain the same concentration of DMSO, for single dose screening. The plates are incubated at 37° C. in a humidified 5% CO2 environment for three days.
On day four, the NTPII assay is quantitated. The medium is poured from the plates and the plates are washed once in 200 μl of PBS. The PBS is then decanted and the plates tapped in a paper towel to remove any remaining PBS. Cells are fixed in situ with 100 id/well of pre-cooled (−20° C.) methanol:acetone (1:1) and the plates are placed at −20° C. for 30 minutes.
The fixing solution is poured from the plates and the plates allowed to air-dry completely (approximately one hour). The appearance of the dried cell layer is recorded and the density of the cells in the toxic wells is scored with the naked eye. […]
By EC50 is commonly meant the concentration at which the effect is half-maximal. A high value points to a less potent agent. Molecule `CCCC(NC(=O)C1C2CCCC2CN1C(=O)C(C)N1CCCCC1)C(=O)C(=O)NC1CC1` (stereo not shown) [Compound 35, N-(1-(cyclopropylamino)-1,2-dioxohexan-3-yl)-2-(2-(piperidin-1-yl)propanoyl)octahydrocyclopenta [c]pyrrole-1-carboxamide] had an EC50 below 100 µM. `CCCC(NC(=O)C1C2CCCC2CN1C(=O)C(c1ccccc1)N1CCCCC1)C(=O)C(=O)NC1CC1` (stereo not shown) [Compound 36, N-(1-(cyclopropylamino)-1,2-dioxohexan-3-yl)-2-(2-phenyl-2-(piperidin-1-yl)acetyl)octahydrocyclopenta[c] pyrrole-1-carboxamide] displayed an EC50 below 100 µM. Still for that read-out and setting: as for `CCCC(NC(=O)C1C2CCCC2CN1C(=O)C(C)N1CCCCCC1)C(=O)C(=O)NC1CC1` (stereo not shown) [Compound 37, 2-(2-(azepan-1-yl)propanoyl)-N-(1-(cyclopropylamino)-1,2-dioxohexan-3-yl)octahydrocyclopenta[c]pyrrole-1-carboxamide], the figure is below 100 µM; as for `CCCC(NC(=O)C1C2CCCC2CN1C(=O)[C@@H](NC(=O)OC(C)(C)C)C(C)(C)C)C(=O)C(=O)NC1CC1` (stereo partly drawn) [Compound 39, tert-butyl(2S)-1-(1-(1-(cyclopropylamino)-1,2-dioxohexan-3-ylcarbamoyl)hexahydrocyclopenta[c]pyrrol-2(1H)-yl)-3,3-dimethyl-1-oxobutan-2-ylcarbamate], below 100 µM; as for `CCCC(NC(=O)C1C2CCCC2CN1C(=O)C(C)N1CCCC1)C(=O)C(=O)NC1CC1` (stereo not shown) [Compound 40, N-(1-(cyclopropylamino)-1,2-dioxohexan-3-yl)-2-(2-(pyrrolidin-1-yl)propanoyl)octahydrocyclopenta [c]pyrrole-1-carboxamide], below 100 µM.

As to `CCCC(NC(=O)C1C2CCCC2CN1C(=O)[C@@H](C)N1CCCCC1)C(=O)C(=O)NC1CC1` (stereo partly drawn) [Compound 42, N-(1-(cyclopropylamino)-1,2-dioxohexan-3-yl)-2-((R)-2-(piperidin-1-yl)propanoyl)octahydrocyclopenta [c]pyrrole-1-carboxamide], the 50% effective concentration (EC50) is above 100 µM. Same read-out and setting: for `CCCC(NC(=O)C1C2CCCC2CN1C(=O)[C@@H](C)N1CCCC1)C(=O)C(=O)NC1CC1` (stereo partly drawn) [Compound 43, N-(1-(cyclopropylamino)-1,2-dioxohexan-3-yl)-2-((R)-2-(pyrrolidin-1-yl)propanoyl)octahydrocyclopenta [c]pyrrole-1-carboxamide] the value was above 100 µM; for `CCCC(NC(=O)[C@@H]1C[C@@H](OC(=O)N2CCc3ccccc3C2)CN1C(=O)C(C)N1CCCCC1)C(=O)C(=O)NC1CC1` (stereo partly drawn) [Compound 44, (3R,5S)-5-(1-(cyclopropylamino)-1,2-dioxohexan-3-ylcarbamoyl)-1-(2-(piperidin-1-yl)propanoyl)pyrrolidin-3-yl 3,4-dihydroisoquinoline-2(1H)-carboxylate], below 100 µM; for `CCCC(NC(=O)C1C[C@@H](OC(=O)N2CCc3ccccc3C2)CN1C(=O)C(C)N1CCCC1)C(=O)C(=O)NC1CC1` (stereo partly drawn) [Compound 45, (3R,5S)-S-(1-(cyclopropylamino)-1,2-dioxohexan-3-ylcarbamoyl)-1-(2-(pyrrolidin-l-yl)propanoyl)pyrrolidin-3-yl 3,4-dihydroisoquinoline-2(1H)-carboxylate], above 100 µM.

`CCCC(NC(=O)C1C2CCCC2CN1C(=O)[C@H](C)N1CCCCC1)C(=O)C(=O)NC1CC1` (stereo partly drawn) [Compound 46, N-(1-(cyclopropylamino)-1,2-dioxohexan-3-yl)-2-((S)-2-(piperidin-1-yl)propanoyl)octahydrocyclopenta [c]pyrrole-1-carboxamide] showed a 50% effective concentration (EC50) below 100 µM. Still for that read-out and setting: as for `CCCC(NC(=O)C1C2CCCC2CN1C(=O)[C@@H](N1CCCCC1)C(C)(C)C)C(=O)C(=O)NC1CC1` (stereo partly drawn) [Compound 47, N-(1-(cyclopropylamino)-1,2-dioxohexan-3-yl)-2-((S)-3,3-dimethyl-2-(piperidin-1-yl)butanoyl)octahydrocyclopenta [c]pyrrole-1-carboxamide], the figure is below 100 µM; as for `CCCC(NC(=O)C1C2CCCC2CN1C(=O)[C@H](C(C)C)N1CCCCC1)C(=O)C(=O)NC1CC1` (stereo partly drawn) [Compound 49, N-(1-(cyclopropylamino)-1,2-dioxohexan-3-yl)-2-((S)-3-mcthyl-2-(piperidin-1 - yl)bulanoyl)octahydrocyclopenta [c]pyrrole-1-carboxamide], below 100 µM; as for `C=CC1CC1(NC(=O)[C@@H]1C[C@@H](Oc2cc(-c3ccccc3)nc3cc(OC)ccc23)CN1C(=O)[C@@H](N1CCCCC1)C(C)(C)C)C(=O)OCC` (stereo partly drawn) [Compound 50, ethyl 1-((2S,4R)-1-((S)-3,3-dimethyl-2-(piperidin-1-yl)butanoyl)-4-(7-methoxy-2-phenylquinolin-4-yloxy)pyrrolidine-2-carboxamido)-2-vinylcyclopropanecarboxylate], below 100 µM. As to `C=CC1CC1(NC(=O)[C@@H]1C[C@@H](Oc2cc(-c3ccccc3)nc3cc(OC)ccc23)CN1C(=O)[C@H](c1ccccc1)N1CCCCC1)C(=O)OCC` (stereo partly drawn) [Compound 51, ethyl 1-((2S,4R)-4-(7-methoxy-2-phenylquinolin-4-yloxy)-1-((S)-2-phenyl-2-(piperidin-1-yl)acetyl)pyrrolidine-2-carboxamido)-2-vinylcyclopropanecarboxylate], the EC50 is below 100 µM. Still for that read-out and setting: as for `C=CC1CC1(NC(=O)[C@@H]1C[C@@H](Oc2cc(-c3ccccc3)nc3cc(OC)ccc23)CN1C(=O)[C@H](C(C)C)N1CCCCC1)C(=O)OCC` (stereo partly drawn) [Compound 52, ethyl 1-((2S,4R)-4-(7-methoxy-2-phenylquinolin-4-yloxy)-1-((S)-3-methyl-2-(piperidin-1-yl)butanoyl)pyrrolidine-2-carboxamido)-2-vinylcyclopropanecarboxylate], the figure is below 100 µM; as for `C=CC1CC1(NC(=O)[C@@H]1C[C@@H](Oc2cc(-c3ccccc3)nc3cc(OC)ccc23)CN1C(=O)[C@H](C1CCCCC1)N1CCCCC1)C(=O)OCC` (stereo partly drawn) [Compound 53, ethyl 1-((2S,4R)-1-((S)-2-cyclohexyl-2-(piperidin-1-yl)acetyl)-4-(7-methoxy-2-phenylquinolin-4-yloxy)pyrrolidine-2-carboxamido)-2-vinylcyclopropanecarboxylate], below 100 µM; as for `C=CC1CC1(NC(=O)[C@@H]1C[C@@H](Oc2cc(-c3ccccc3)nc3cc(OC)ccc23)CN1C(=O)[C@H](C)N1CCCCC1)C(=O)OCC` (stereo partly drawn) [Compound 54, ethyl 1-((2S,4R)-4-(7-methoxy-2-phenylquinolin-4-yloxy)-1-((S)-2-(piperidin-1-yl)propanoyl)pyrrolidine-2-carboxamido)-2-vinylcyclopropanecarboxylate], below 100 µM. With `C=CC1CC1(NC(=O)[C@@H]1C[C@@H](Oc2cc(-c3ccccc3)nc3cc(OC)ccc23)CN1C(=O)[C@@H](N1CCCCC1)C(C)(C)C)C(=O)O` (stereo partly drawn) [Compound 55, 1-((2S,4R)-1-((S)-3,3-dimethyl-2-(piperidin-1-yl)butanoyl)-4-(7-methoxy-2-phenylquinolin-4-yloxy)pyrrolidine-2-carboxamido)-2-vinylcyclopropanecarboxylic acid], the half-maximal effective concentration (EC50) is below 100 µM.

The test is the same for the next values; noted with them: inhibition of HCV replicon replication, Huh-7 HCV replicon-containing cells, three days.
With `CCCC(NC(=O)C1C2CCCC2CN1C(=O)[C@@H](N1CCCCC1)C(C)(C)C)C(=O)C(=O)NC1CC1` (stereo partly drawn) [Compound 48, N-(1-(cyclopropylamino)-1,2-dioxohexan-3-yl)-2-((S)-3,3-dimethyl-2-(piperidin-1-yl)butanoyl)octahydrocyclopenta [c]pyrrole-1-carboxamide], the EC50 was below 100 µM.
